Active and inactive are the calls of the source.
Key:
Estrogen receptor beta [1] = target: T1, Estrogen receptor beta (Homo sapiens, UniProt Q92731); assay: blockers of SRC-3 recruitment to ERβ – biochemical, ELISA, streptavidin-HRP readout, orthogonal assay, confirmation (AID 1060)
[2] = target: T2, Voltage-gated N-type calcium channel alpha-1B subunit/Amyloid beta A4 precursor protein-binding family A member 1 (Homo sapiens, UniProt Q00975+Q02410); assay: disruptors of Mint-PDZ/N-type channel peptide interaction – biochemical, HTRF, set 2, SAR follow-up (AID 434980); assay type: functional
Estrogen receptor beta [3] = target: T1, Estrogen receptor beta
SUMO E1/E2 = SUMO E1/E2 (Homo sapiens, UniProt P63279+Q9UBE0+Q9UBT2); assay: SAR analysis of SUMOylation using HTRF in an in-Vitro dose response assay. [Related pubchem assays (depositor defined):AID2006, AID2011, AID2018, AID2069, AID2658]; assay type: functional
[4] = target: T2, Voltage-gated N-type calcium channel alpha-1B subunit/Amyloid beta A4 precursor protein-binding family A member 1; assay: disruptors of Mint-PDZ/N-type channel peptide interaction – biochemical, HTRF, SAR follow-up (AID 2489); assay type: functional
[5] = target: Nucleotide-binding oligomerization domain-containing protein 1 (Homo sapiens, UniProt Q9Y239); assay: blockers of NOD1 pathway activity – revised, SAR follow-up (AID 2333); assay type: functional
HEK293 [6] = assay: cells; details: Homo sapiens
HEK293 [7] = assay: cells; assay type: functional, cell-based; details: Homo sapiens
HEK293 [8] = assay: cells; assay type: functional, cell-based; details: Homo sapiens; remark: listed apart in the source
HEK293 [9] = assay: NOD2 signaling inhibitors in MDP-stimulated cells, cell-based, uHTS, luminescence (AID 2001); assay type: functional; details: Homo sapiens
[10] = target: Nucleotide-binding oligomerization domain-containing protein 2 (Homo sapiens, UniProt Q9HC29); assay: inhibition of NOD2-driven NF-kB reporter – cell-based, luminescence, uHTS, HEK293 (AID 1566); assay type: functional
Tumor necrosis factor = Tumor necrosis factor (Homo sapiens, UniProt P01375); assay: analog potency on TNFa NF-kB signaling – cell-based, revised, SAR follow-up (AID 2337); assay type: functional
HEK293 [11] = assay: cells; assay type: functional, cell-based; details: Homo sapiens; remark: listed apart in the source
H9c2 = assay: cells; assay type: functional, cell-based; details: Rattus norvegicus, H9c2, Myocardium;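 note: confirmatory concentration-response retest of ultra-high-throughput screening hits for modulation of myocardial damage; cell death induced by hydrogen peroxide oxidative stress; compound pretreatment for 60 min then peroxide exposure for 2 h; potency is for protecting the cells against peroxide damage rather than for killing them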
HEK293 [12] = assay: inhibition of NOD1-driven NF-kB reporter – cell-based, luminescence, uHTS, primary screen (AID 1578); assay type: functional; details: Homo sapiens
[13] = target: T3, G-protein coupled receptor 35 (Homo sapiens, UniProt Q9HC97); assay: inhibition of zaprinast-stimulated GPR35 beta-arrestin translocation – imaging, U2OS, beta-arrestin-GFP, zaprinast agonist, primary screen (AID 2058); assay type: functional;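 note: antagonist potency meaning inhibition of agonist-induced arrestin redistribution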
[14] = target: G-protein coupled receptor 55 (Homo sapiens, UniProt Q9Y2T6); assay: blockers of GPR55 signalling, imaged – imaging, image-based, counter-screen for GPR35 antagonist project, SAR follow-up (AID 2397); assay type: functional
[15] = target: T3, G-protein coupled receptor 35; assay: SAR Analysis for the identification of Selective Antagonists of ERK1/2 Activity in GPR35-Overexpressing U2OS Cells. [Related pubchem assays: 2079, 2058 ]; assay type: functional, cell-based
[16] = target: Lysine-specific demethylase 4A (Homo sapiens, UniProt O75164); assay: inhibition of JMJD2A H3K9me3 demethylation – biochemical, DELFIA europium, cherry-picked samples, selectivity assay for GASC-1 inhibitor project, dose response (AID 488840)
fMet-Leu-Phe receptor = target: T4, fMet-Leu-Phe receptor (Homo sapiens, UniProt P21462); assay: formyl peptide receptor binders – dose response (AID 519); assay type: functional
T4 sequence (P21462 whole entry): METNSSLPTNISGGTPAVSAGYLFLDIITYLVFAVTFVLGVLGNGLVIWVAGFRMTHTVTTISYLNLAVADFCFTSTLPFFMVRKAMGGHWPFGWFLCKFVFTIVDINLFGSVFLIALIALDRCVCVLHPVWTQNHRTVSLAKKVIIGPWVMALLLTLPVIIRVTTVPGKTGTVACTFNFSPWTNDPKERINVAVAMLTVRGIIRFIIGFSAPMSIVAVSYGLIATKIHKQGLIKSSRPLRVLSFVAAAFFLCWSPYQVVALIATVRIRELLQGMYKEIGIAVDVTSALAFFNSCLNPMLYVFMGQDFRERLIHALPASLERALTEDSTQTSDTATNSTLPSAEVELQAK

[17] = target: T5, Lysine-specific demethylase 4C (Homo sapiens, UniProt Q9H3R0); assay: inhibition of JMJD2C H3K9me3 demethylation – biochemical, DELFIA europium, cherry-picked samples, dose response (AID 488835); assay type: functional
T5 sequence (Q9H3R0 whole entry): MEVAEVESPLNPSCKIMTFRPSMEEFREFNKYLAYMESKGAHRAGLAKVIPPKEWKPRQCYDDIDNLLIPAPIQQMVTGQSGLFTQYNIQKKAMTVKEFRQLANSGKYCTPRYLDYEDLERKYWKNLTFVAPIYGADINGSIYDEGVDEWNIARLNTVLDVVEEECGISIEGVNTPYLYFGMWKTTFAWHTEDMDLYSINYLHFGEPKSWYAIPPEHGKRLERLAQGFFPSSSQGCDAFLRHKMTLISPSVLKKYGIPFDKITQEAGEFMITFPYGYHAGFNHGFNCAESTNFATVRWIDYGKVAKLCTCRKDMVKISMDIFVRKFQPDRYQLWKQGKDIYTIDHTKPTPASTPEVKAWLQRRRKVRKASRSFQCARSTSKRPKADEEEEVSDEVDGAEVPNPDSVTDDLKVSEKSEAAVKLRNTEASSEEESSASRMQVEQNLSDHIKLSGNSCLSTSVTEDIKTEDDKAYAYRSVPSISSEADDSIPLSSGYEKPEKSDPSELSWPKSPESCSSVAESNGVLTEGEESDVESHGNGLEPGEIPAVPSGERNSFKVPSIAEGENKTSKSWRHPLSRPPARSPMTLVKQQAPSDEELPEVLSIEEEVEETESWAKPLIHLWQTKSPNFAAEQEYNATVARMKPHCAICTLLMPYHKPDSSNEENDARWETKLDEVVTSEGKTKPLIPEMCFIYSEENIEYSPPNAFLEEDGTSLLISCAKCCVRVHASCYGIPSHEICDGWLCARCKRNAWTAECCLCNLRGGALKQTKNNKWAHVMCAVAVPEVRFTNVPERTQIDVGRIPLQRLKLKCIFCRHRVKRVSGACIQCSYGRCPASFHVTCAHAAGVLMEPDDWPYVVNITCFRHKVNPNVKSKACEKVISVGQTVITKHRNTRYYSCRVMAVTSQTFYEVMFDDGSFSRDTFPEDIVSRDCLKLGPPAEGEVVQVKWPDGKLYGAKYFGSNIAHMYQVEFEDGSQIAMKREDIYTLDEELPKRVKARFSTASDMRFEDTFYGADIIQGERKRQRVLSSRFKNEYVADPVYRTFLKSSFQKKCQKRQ

Cytochrome P450 2D6 = Cytochrome P450 2D6 (Homo sapiens, UniProt P10635);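 note: CYP2D6 member of a cytochrome P450 panel assay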
Cytochrome P450 1A2 = target: T6, Cytochrome P450 1A2 (Homo sapiens, UniProt P05177);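 note: PubChem cytochrome P450 panel assay, CYP1A2 panel member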
T6 sequence (P05177 whole entry): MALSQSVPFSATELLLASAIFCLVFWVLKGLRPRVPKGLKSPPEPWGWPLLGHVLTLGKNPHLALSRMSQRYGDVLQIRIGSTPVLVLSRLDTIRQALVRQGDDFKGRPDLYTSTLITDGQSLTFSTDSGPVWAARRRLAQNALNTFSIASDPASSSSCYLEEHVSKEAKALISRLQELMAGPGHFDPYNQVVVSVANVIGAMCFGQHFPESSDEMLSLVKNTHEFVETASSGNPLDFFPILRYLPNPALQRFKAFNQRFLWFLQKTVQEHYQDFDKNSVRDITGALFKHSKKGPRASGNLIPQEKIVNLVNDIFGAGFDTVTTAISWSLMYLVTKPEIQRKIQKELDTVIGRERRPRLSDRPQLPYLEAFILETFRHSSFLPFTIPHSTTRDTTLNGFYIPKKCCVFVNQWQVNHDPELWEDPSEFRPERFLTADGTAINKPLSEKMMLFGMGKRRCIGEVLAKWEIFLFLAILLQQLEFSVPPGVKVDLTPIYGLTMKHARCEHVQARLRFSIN

Cytochrome P450 3A4 = Cytochrome P450 3A4 (Homo sapiens, UniProt P08684);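 note: CYP3A4 tested as one member of a cytochrome P450 panel screen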
Cytochrome P450 2C19 = Cytochrome P450 2C19 (Homo sapiens, UniProt P33261); assay: Cytochrome panel assay with activity outcomes. Panel member name: p450-cyp2c19 Compounds with AC50 equal or less than 10 uM are considered active; assay type: functional
Cytochrome P450 2C9 = Cytochrome P450 2C9 (Homo sapiens, UniProt P11712)
[18] = target: Nuclear receptor ROR-alpha (Homo sapiens, UniProt P35398); assay: LXR, FXR and VP16 reporter activity, cell-based, luciferase reporter, ROR modulator project, late-stage follow-up, panel member RORA (AID 2117)
[19] = target: Nuclear receptor ROR-gamma (Homo sapiens, UniProt P51449); assay: LXR, FXR and VP16 reporter activity, cell-based, luciferase reporter, ROR modulator project, late-stage follow-up, panel member RORG (AID 2117)
[20] = target: T7, Mannose-6-phosphate isomerase (Homo sapiens, UniProt P34949); assay: phosphomannose isomerase inhibition – biochemical, fluorescence intensity, confirmation (AID 1535)
T7 sequence (P34949 whole entry): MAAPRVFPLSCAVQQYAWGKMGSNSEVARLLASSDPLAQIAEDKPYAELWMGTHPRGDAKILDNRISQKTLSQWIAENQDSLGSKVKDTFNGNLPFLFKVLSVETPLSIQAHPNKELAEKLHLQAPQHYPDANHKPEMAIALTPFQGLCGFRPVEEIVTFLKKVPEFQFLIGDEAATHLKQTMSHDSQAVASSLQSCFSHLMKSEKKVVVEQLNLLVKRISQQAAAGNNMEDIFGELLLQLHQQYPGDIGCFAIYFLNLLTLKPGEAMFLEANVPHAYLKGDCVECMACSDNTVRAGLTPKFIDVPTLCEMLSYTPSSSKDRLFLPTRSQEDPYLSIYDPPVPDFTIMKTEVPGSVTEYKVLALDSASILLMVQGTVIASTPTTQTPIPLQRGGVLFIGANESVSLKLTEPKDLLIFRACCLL

Phosphomannomutase 2 = Phosphomannomutase 2 (Homo sapiens, UniProt O15305); assay: Counter screen SAR assay for PMM2 inhibitors via a fluorescence intensity assay. [Related pubchem assays (depositor defined):AID1545, AID1574]
Phosphomannomutase 2, sequence (O15305 whole entry): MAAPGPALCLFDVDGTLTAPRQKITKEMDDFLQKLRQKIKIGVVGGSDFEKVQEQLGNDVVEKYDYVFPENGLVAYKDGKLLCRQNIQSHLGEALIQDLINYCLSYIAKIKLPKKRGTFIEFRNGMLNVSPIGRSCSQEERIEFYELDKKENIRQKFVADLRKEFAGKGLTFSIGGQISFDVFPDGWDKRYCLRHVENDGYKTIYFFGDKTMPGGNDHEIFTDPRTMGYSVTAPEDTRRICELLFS

T2 sequence (Q00975 whole entry): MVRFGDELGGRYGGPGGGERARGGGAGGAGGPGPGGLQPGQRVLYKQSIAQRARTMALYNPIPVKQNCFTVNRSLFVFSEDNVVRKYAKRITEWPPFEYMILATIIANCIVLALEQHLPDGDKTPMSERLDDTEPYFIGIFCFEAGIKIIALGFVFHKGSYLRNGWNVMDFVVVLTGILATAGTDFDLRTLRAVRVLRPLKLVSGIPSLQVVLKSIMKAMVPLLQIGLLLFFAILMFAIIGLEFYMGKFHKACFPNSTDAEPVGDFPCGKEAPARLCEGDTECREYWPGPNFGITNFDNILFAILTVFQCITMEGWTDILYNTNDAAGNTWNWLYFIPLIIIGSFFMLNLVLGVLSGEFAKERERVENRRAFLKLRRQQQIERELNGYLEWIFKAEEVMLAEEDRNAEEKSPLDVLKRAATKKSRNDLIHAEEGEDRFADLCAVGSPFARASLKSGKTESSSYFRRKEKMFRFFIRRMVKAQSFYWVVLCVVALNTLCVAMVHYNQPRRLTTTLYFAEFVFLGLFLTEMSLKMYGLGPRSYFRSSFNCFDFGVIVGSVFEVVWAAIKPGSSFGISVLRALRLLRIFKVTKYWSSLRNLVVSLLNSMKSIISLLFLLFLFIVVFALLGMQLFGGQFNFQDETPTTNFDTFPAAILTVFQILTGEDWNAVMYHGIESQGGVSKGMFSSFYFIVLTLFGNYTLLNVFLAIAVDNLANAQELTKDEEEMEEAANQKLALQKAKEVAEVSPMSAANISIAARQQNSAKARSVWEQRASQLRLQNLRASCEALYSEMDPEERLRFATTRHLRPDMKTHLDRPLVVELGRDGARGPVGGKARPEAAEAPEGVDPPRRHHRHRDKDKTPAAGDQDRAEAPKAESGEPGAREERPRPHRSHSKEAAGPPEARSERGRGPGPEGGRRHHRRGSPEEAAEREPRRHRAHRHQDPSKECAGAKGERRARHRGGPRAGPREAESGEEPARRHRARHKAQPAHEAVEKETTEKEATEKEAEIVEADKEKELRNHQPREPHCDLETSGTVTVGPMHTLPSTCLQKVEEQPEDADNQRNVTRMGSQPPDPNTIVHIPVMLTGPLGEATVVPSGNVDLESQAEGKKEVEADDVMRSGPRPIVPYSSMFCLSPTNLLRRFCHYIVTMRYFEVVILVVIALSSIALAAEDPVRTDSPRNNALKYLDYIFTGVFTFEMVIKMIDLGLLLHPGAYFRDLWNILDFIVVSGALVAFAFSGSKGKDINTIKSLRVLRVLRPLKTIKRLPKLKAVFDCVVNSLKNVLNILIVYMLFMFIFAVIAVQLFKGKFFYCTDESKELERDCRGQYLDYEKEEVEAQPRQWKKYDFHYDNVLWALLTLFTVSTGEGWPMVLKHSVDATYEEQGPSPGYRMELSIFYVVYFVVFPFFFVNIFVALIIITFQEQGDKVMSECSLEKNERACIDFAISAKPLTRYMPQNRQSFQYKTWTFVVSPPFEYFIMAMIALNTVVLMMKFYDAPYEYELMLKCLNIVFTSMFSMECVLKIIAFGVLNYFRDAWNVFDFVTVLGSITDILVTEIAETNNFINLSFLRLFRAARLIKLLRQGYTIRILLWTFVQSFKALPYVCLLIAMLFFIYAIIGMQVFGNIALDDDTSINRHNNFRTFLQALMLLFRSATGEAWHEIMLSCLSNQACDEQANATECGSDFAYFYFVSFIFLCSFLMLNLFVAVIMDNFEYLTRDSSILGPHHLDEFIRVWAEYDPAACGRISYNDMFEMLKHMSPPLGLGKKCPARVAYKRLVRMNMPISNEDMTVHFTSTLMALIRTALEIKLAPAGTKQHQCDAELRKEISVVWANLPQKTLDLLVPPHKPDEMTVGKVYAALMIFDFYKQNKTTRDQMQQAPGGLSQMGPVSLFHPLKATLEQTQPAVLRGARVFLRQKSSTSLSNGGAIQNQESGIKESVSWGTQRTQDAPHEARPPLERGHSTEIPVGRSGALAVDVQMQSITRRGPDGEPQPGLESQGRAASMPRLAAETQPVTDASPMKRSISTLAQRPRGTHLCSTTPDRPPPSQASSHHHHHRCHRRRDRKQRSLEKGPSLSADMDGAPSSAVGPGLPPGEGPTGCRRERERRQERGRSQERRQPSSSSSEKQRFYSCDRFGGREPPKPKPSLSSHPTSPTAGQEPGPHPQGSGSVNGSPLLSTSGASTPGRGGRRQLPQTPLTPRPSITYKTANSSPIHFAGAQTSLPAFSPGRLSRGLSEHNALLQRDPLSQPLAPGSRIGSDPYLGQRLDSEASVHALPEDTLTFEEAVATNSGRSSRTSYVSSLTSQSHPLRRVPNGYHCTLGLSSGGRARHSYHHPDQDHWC
T2 sequence (Q02410 whole entry): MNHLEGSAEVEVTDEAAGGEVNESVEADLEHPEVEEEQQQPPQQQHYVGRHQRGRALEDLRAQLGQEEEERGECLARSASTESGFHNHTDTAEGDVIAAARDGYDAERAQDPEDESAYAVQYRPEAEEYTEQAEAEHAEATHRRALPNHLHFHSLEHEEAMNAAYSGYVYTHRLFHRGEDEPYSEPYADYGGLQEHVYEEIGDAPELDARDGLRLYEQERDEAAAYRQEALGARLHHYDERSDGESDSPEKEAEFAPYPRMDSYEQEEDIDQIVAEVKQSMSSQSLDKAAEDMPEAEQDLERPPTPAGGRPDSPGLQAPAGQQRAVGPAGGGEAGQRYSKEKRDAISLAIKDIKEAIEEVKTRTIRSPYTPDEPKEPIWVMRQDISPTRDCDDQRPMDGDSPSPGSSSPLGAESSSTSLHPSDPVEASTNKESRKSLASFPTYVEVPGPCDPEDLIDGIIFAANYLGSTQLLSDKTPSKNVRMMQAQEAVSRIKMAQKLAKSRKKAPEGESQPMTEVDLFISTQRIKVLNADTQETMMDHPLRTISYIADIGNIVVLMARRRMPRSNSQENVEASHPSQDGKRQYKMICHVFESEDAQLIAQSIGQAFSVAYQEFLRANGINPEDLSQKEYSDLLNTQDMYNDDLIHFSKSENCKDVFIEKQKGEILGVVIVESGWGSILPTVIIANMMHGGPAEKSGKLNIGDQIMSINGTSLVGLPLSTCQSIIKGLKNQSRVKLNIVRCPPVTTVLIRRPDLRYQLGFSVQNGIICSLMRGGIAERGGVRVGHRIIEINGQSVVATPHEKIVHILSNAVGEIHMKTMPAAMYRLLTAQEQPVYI
T1 sequence (Q92731 whole entry): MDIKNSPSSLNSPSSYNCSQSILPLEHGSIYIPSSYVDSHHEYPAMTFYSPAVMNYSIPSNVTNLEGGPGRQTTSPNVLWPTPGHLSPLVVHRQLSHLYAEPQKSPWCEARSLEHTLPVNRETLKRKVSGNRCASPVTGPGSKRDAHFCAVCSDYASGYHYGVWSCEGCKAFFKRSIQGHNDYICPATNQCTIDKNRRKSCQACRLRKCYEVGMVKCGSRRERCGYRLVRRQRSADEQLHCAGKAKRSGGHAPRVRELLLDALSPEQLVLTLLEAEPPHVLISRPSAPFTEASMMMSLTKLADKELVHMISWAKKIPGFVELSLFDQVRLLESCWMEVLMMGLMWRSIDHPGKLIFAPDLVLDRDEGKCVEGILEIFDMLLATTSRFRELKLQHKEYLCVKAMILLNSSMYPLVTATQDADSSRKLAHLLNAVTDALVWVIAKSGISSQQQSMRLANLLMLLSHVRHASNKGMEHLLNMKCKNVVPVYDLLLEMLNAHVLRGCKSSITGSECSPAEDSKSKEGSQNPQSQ
T3 sequence (Q9HC97 whole entry): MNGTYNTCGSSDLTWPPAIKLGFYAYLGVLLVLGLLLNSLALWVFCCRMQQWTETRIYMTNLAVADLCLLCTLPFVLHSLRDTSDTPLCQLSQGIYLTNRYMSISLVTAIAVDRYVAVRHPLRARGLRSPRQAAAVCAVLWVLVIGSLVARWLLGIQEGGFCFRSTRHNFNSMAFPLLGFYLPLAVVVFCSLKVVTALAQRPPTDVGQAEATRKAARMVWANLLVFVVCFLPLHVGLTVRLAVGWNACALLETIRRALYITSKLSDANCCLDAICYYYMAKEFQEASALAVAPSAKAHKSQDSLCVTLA
G-protein coupled receptor 55, sequence (Q9Y2T6 whole entry): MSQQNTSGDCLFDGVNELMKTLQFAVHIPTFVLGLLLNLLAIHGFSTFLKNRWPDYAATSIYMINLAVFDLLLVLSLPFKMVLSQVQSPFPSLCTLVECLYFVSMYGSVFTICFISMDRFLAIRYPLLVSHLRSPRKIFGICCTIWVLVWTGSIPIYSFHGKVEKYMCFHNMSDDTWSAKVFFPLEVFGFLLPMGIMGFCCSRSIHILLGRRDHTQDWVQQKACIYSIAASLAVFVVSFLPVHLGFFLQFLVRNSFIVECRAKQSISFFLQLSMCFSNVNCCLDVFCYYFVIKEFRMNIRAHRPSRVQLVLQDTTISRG
Cytochrome P450 2C19, sequence (P33261 whole entry): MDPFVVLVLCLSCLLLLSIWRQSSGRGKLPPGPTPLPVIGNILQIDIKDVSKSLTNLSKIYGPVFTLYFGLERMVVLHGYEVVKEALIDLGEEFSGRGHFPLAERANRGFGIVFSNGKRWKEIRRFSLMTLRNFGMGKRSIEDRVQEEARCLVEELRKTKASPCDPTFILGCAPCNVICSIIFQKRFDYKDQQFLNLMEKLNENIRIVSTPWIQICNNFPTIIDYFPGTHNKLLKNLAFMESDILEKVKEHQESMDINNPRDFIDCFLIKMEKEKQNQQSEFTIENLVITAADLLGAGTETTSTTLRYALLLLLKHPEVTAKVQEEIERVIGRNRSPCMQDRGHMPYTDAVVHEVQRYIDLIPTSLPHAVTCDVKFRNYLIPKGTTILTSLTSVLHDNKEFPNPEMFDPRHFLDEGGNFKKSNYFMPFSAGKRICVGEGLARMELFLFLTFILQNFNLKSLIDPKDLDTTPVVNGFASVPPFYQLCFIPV

Compound: COc1ccc(CNC(=O)COC(=O)c2cc(-c3ccco3)nc3ccccc23)cc1
- IC50 (Estrogen receptor beta [1]): > 50 µM (not active)
- IC50 [2]: 11.4 µM (active)
- IC50 (Estrogen receptor beta [3]): < 1.56 µM (active)
- IC50 (SUMO E1/E2): 6.59 µM (active)
- IC50 [4]: > 56.8 µM (inactive)

Compound: Cc1c(O)ccc2c(-c3ccccc3)cc(=O)oc12
- IC50 [5]: 6.53 µM (active)
- IC50 (HEK293 [6]): > 20 µM (inactive)
- IC50 (HEK293 [7]): 5.78 µM (active)
- IC50 (HEK293 [8]): > 20 µM (inactive)
- IC50 (HEK293 [9]): 6.85 µM (active)
- EC50 [10]: 4.67 µM (active)
- IC50 (Tumor necrosis factor): 6.62 µM (active)
- IC50 (HEK293 [11]): > 20 µM (inactive)
- IC50 (H9c2): > 79 µM (inactive)
- EC50 (HEK293 [12]): 16.3 µM (active)

Compound: Cc1nc(N2CCC(C)CC2)c2c(C)c(C(=O)Nc3ccc4c(c3)OCCO4)sc2n1
- IC50 [13]: 1.2 µM (active)
- IC50 [14]: > 32 µM (inactive)
- IC50 [15]: > 32 µM (not active)

Compound: O=c1cc(N2CCc3ccccc32)[nH]c(=O)n1Cc1ccc(F)cc1
- AC50 [16]: 6.55 µM (active)
- Ki (fMet-Leu-Phe receptor): > 66.7 µM (inactive)
- AC50 [17]: 1.09 µM (active)

Compound: N#Cc1cccc(NC(=O)N2CC[C@@]3(CCCN(C(=O)Oc4ccccc4)C3)C2)c1
- AC50 (Cytochrome P450 2D6): inconclusive
- AC50 (Cytochrome P450 1A2): inconclusive
- AC50 (Cytochrome P450 3A4): 2.51 µM (inconclusive)
- AC50 (Cytochrome P450 2C19): inconclusive
- AC50 (Cytochrome P450 2C9): inconclusive

Compound: O=S(=O)(Nc1ccc(C(O)(C(F)(F)F)C(F)(F)F)cc1)c1cccc2ccccc12
- IC50 [18]: 7.75 µM (active)
- IC50 [19]: 1.94 µM (active)

Compound: Clc1nss/c1=N\c1nc2ccccc2s1
- IC50 [20]: > 100 µM (inactive)
- IC50 (Phosphomannomutase 2): > 100 µM (inactive)

Source: ChEMBL document CHEMBL1201862, “PubChem BioAssay data set” (2004)
